Like-named read-outs stand apart in the source and are kept apart here. *1 amine or outer side, *2 acyl side, *3 side chain or, on linkers, in order; H or OH if unused. Where a SMILES comes first, the peptide text is derived from it. Bridges are numbered along the chain shown (N, C = ends). [ ]: non-standard residue; d: D form. The star is where a group is joined. X7 = CC(C)C(=O)N1[C@H]2CC[C@@H]1C=C(c1ccc(F)cc1C[C@@H](C(=O)[*:2])N(C)[*:1])C2; X127 = CN([C@@H](Cc1cc(F)ccc1-c1cnn(S(=O)(=O)C2CC2)c1)C(=O)[*:2])[*:1]; X175 = Cc1cc(-c2ccc(Cl)cc2C[C@@H](C(=O)[*:2])N(C)[*:1])ccc1N1CCOCC1; X197 = CN([C@@H](Cc1cc(Cl)ccc1-c1ccc(=O)[nH]c1)C(=O)[*:2])[*:1]; X184 = CC(=O)N1CCC(c2ccc(F)cc2C[C@@H](C(=O)[*:2])N(C)[*:1])CC1; NMehhhLys(Me) = CN([C@@H](CCCCCCCN(C)[*:3])C(=O)[*:2])[*:1]; X131 = CN([C@@H](Cc1cc(F)cnc1-c1cnn(C)c1)C(=O)[*:2])[*:1]; NMe(hhhLys) = CN([C@@H](CCCCCCCN[*:3])C(=O)[*:2])[*:1]; NMe3Pal(2-OMe,5-Cl) = CN[C@@H](Cc1cc(Cl)cnc1OC)C(=O)O; X143 = CN([C@@H](Cc1cc(F)cc2cccnc12)C(=O)[*:2])[*:1]; Cyclobutanecarbonyl(1-CF3) = O=C(C1(C(F)(F)F)CCC1)*; cBuCO(3,3-F2-1-CF3) = O=C(C1(C(F)(F)F)CC(F)(F)C1)*; Pro(trans-4-F) = O=C(O)[C@@H]1C[C@@H](F)CN1; Gly(cPr) = N[C@H](C(=O)O)C1CC1
Experiments:
CyclinA2/CDK2 = target: T1, CyclinA2/CDK2 (Homo sapiens, UniProt P20248); test: Fluorescence Polarization (FP) competitive binding assay, Cyclin A2/Cdk2;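 also: plates equilibrated two hours at room temperature before polarization reading, IC50 fitted from eight-concentration compound titration curves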
T1 construct: purchased CRELUX Protein Services

CyclinB1/CDK1 = target: T2, CyclinB1/CDK1 (Homo sapiens, UniProt P14635); test: Fluorescence Polarization (FP) competitive binding assay, Cyclin B1/Cdk1;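 also: fluorescence polarization read after equilibration at room temperature, with IC50 taken from serially diluted dose-response curves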
T2 construct: purchased Eurofins, discovery 14-450

CyclinE1/CDK2 = target: T3, CyclinE1/CDK2 (Homo sapiens, UniProt P24864); test: Fluorescence Polarization (FP) competitive binding assay, Cyclin E1/Cdk2;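 also: readings taken after two-hour equilibration at room temperature in HEPES buffer with NaCl, DTT, NP-40 and BSA, IC50 fitted from eight-concentration serial dilution series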
T3 construct: purchased Eurofins, discovery 14-475

OVCAR3 cells = test: MTT proliferation assay, OVCAR3; type: cell-based; settings: 5 days compound exposure, 1:3 serial dilution starting at 10 μM;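 also: compound given as an 8- or 10-point series, one day after plating, with exposure covering roughly 3-4 cell doublings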
NCI-H1048 cells = test: MTT proliferation assay, NCI-H1048; type: cell-based; settings: 5 days compound exposure, 1:3 serial dilution starting at 10 μM;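 also: Dose-response in 96-well plates over 8 or 10 concentration points, with exposure spanning 3-4 cell doublings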
[1] = 8 nM Cyclin A2/Cdk2, 2 nM FAM probe, average of 2-3 independent experiments, read-out: Cyclin A FP IC50
[2] = 10 nM Cyclin B1/Cdk1, 2 nM FAM probe; average of 2-3 independent experiments; read-out: Cyclin B FP IC50
[3] = 10 nM Cyclin E1/Cdk2, 2 nM FAM probe, average of 2-3 independent experiments, read-out: Cyclin E FP IC50
[4] = read-out: Cyclin B FP IC50; 10 nM Cyclin B1/Cdk1, 2 nM FAM probe; average of 2-3 independent experiments

Structure (SMILES) | IC50 (CyclinA2/CDK2; [1]) [µM] | IC50 (CyclinB1/CDK1; [2]) [µM] | IC50 (CyclinE1/CDK2; [3]) [µM] | GI50 (OVCAR3 cells) [µM] | GI50 (NCI-H1048 cells) [µM] | IC50 (CyclinA2/CDK2) [µM] | IC50 (CyclinB1/CDK1; [4]) [µM] | IC50 (CyclinE1/CDK2) [µM]
Cc1cc(-c2ccc(Cl)cc2C[C@H]2C(=O)N(C)CCCCCCC[C@H](N(C)C(=O)[C@@H](NC(=O)[C@@H]3C[C@@H](F)CN3C(=O)C3(C(F)(F)F)CC(F)(F)C3)C3CC3)C(=O)N[C@@H](CC(C)C)C(=O)N2C)ccc1N1CCOCC1 [Example 344] ({cBuCO(3,3-F2-1-CF3)}-[Pro(trans-4-F)][Gly(cPr)][NMehhhLys(Me)]L[X175]; lactam 3-C) | 0.02 | 0.02 | 1.27 | 0.02 | 0.01 |  |  | 
CC(C)C[C@@H]1NC(=O)[C@@H](N(C)C(=O)[C@@H](NC(=O)[C@@H]2C[C@@H](F)CN2C(=O)C2(C(F)(F)F)CC(F)(F)C2)C2CC2)CCCCCCCNC(=O)[C@H](Cc2cc(F)ccc2C2=C[C@H]3CC[C@@H](C2)N3C(=O)C(C)C)N(C)C1=O [Example 316] ({cBuCO(3,3-F2-1-CF3)}-[Pro(trans-4-F)][Gly(cPr)][NMe(hhhLys)]L[X7]; lactam 3-C) | 0.02 | 0.02 | 0.29 | 0.01 | 0.01 |  |  | 
CC(C)C[C@@H]1NC(=O)[C@@H](N(C)C(=O)[C@@H](NC(=O)[C@@H]2C[C@@H](F)CN2C(=O)C2(C(F)(F)F)CC(F)(F)C2)C2CC2)CCCCCCCN(C)C(=O)[C@H](Cc2cc(F)ccc2-c2cnn(S(=O)(=O)C3CC3)c2)N(C)C1=O [Example 252] ({cBuCO(3,3-F2-1-CF3)}-[Pro(trans-4-F)][Gly(cPr)][NMehhhLys(Me)]L[X127]; lactam 3-C) |  |  |  | 0.02 | 0.01 | 0.03 | 0.02 | 0.38
COc1ncc(Cl)cc1C[C@H]1C(=O)NCCCCCCC[C@H](N(C)C(=O)[C@@H](NC(=O)[C@@H]2C[C@@H](F)CN2C(=O)C2(C(F)(F)F)CC(F)(F)C2)C2CC2)C(=O)N[C@@H](CC(C)C)C(=O)N1C [Example 275] ({cBuCO(3,3-F2-1-CF3)}-[Pro(trans-4-F)][Gly(cPr)][NMe(hhhLys)]L[NMe3Pal(2-OMe,5-Cl)]; lactam 3-C) | 0.05 | 0.02 | 0.23 | 0.01 | 0.01 |  |  | 
CC(=O)N1CCC(c2ccc(F)cc2C[C@H]2C(=O)N(C)CCCCCCC[C@H](N(C)C(=O)[C@@H](NC(=O)[C@@H]3C[C@@H](F)CN3C(=O)C3(C(F)(F)F)CC(F)(F)C3)C3CC3)C(=O)N[C@@H](CC(C)C)C(=O)N2C)CC1 [Example 45, (2S,4R)—N—((S)-2-(((3S,6S,9S)-3-(2-(1-acetylpiperidin-4-yl)-5-fluorobenzyl)-6-isobutyl-1,4-dimethyl-2,5,8-trioxo-1,4,7-triazacyclohexadecan-9-yl)(methyl)amino)-1-cyclopropyl-2-oxoethyl)-1-(3,3-difluoro-1-(trifluoromethyl)cyclobutane-1-carbonyl)-4-fluoropyrrolidine-2-carboxamide] ({cBuCO(3,3-F2-1-CF3)}-[Pro(trans-4-F)][Gly(cPr)][NMehhhLys(Me)]L[X184]; lactam 3-C) | 0.1 | 0.02 | 0.33 | 0.04 | 0.02 |  |  | 
Cc1nnc(-c2ccc(Cl)cc2C[C@H]2C(=O)NCCCCC=CC[C@H](N(C)C(=O)[C@@H](NC(=O)[C@@H]3C[C@@H](F)CN3C(=O)C3(C(F)(F)F)CCC3)C3CC3)C(=O)N[C@@H](CC(C)C)C(=O)N2C)o1 (single isomer, unassigned) [Example 117-P2] | 0.06 | 0.02 | 0.16 | 0.06 | 0.09 |  |  | 
CC(C)C[C@@H]1NC(=O)[C@@H](N(C)C(=O)[C@@H](NC(=O)[C@@H]2C[C@@H](F)CN2C(=O)C2(C(F)(F)F)CCC2)C2CC2)CCCCCCCN(C)C(=O)[C@H](Cc2cc(F)cnc2-c2cnn(C)c2)N(C)C1=O [Example 245] ({Cyclobutanecarbonyl(1-CF3)}-[Pro(trans-4-F)][Gly(cPr)][NMehhhLys(Me)]L[X131]; lactam 3-C) |  |  |  | 0.02 | 0.08 | 0.04 | 0.02 | 0.22
CC(C)C[C@@H]1NC(=O)[C@@H](N(C)C(=O)[C@@H](NC(=O)[C@@H]2C[C@@H](F)CN2C(=O)C2(C(F)(F)F)CC(F)(F)C2)C2CC2)CCCCCCCN(C)C(=O)[C@H](Cc2cc(F)cc3cccnc23)N(C)C1=O [Example 423] ({cBuCO(3,3-F2-1-CF3)}-[Pro(trans-4-F)][Gly(cPr)][NMehhhLys(Me)]L[X143]; lactam 3-C) | 0.72 | 0.02 | 0.71 | 0.07 | 0.2 |  |  | 
CC(C)C[C@@H]1NC(=O)[C@@H](N(C)C(=O)[C@@H](NC(=O)[C@@H]2C[C@@H](F)CN2C(=O)C2(C(F)(F)F)CC(F)(F)C2)C2CC2)CCCCCCCN(C)C(=O)[C@H](Cc2cc(Cl)ccc2-c2ccc(=O)[nH]c2)N(C)C1=O [Example 180] ({cBuCO(3,3-F2-1-CF3)}-[Pro(trans-4-F)][Gly(cPr)][NMehhhLys(Me)]L[X197]; lactam 3-C) | 0.03 | 0.02 | 1.86 | 1.22 | 0.73 |  |  | 

— patent US20240408169A1 (priority 2023, published 2024)
